Read-outs that look alike come from different tables or passages of the source.
Key:
yam tyrosinase [1] = assay: SPR interaction kinetics of single analytes with immobilized yam tyrosinase, two-state model; type: binding, Amorphophallus paeoniifolius
Description: SPR interaction studies were carried out using a Biocore X100 optical biosensor (GE Healthcare Life Sciences, Uppsala, Sweden). All the SPR measurements were performed in phosphate buffer saline (PBS; 10.1 mM Na2PO4, 1.8 mM KH2PO4, 137 mM NaCl, 2.7 mM KCl, pH 7.4, 0.005% P20). Initially, working dilutions were prepared from the analyte stock solution in PBS only and then allowed to flow through the sensor surface. Biocore control software version 2.2 was used for data collection. Refractive index changes as a function of time under constant flow condition are monitored by the system, and accordingly, experiments were performed. […] There is an inline subtraction of reference surface during the run. This change is usually reported in terms of response units (RUs). The surface of the chip is washed with PBS (running buffer) between each concentration.
The method of amine coupling was employed for the immobilization of yam tyrosinase which was dissolved (50 μg/mL) in 0.1 M sodium acetate buffer with pH value 4.5 as per the pH scouting study in [15]. Yam tyrosinase was immobilized on sensor chip series S CM5. Flow cell on the chip surface was activated for 7 min using a 1 : 1 mixture of 100 mM […] (EDC) and 100 mM N-hydroxysuccinimide (NHS) (both dissolved in water), and subsequently, tyrosinase was injected for 7 min, followed by injection of 1 M ethanolamine, pH 8.5 to block nonreactive sites. For this study, flow cell 3 was blank immobilized (without protein) as reference.
Crocin and kojic acid are natural tyrosinase inhibitors, whereas hydroquinone is a synthetic inhibitor. The grouping of inhibitors was simply based on the efficiency, size, solubility, and origin of inhibitors. […] PBS was used as the running buffer. The flow rate was constant (45 μL/min) throughout the experiment. The contact time (association time) and dissociation time were fixed to 120 s. Experiments were performed with different concentrations of individual inhibitors based on their solubilities: crocin (0.156–2.5 mM), hydroquinone (0.625–10 mM), kojic acid ([…]), and L-DOPA (5–80 mM). These concentrations were optimized by repeating the SPR experiments several times to achieve appropriate binding interactions. […] Regeneration was carried out with 10 mM glycine pH 2.5 for 30 s. Binding analysis was evaluated using the heterogeneous analyte kinetics model. After each cycle of regeneration, the activity of the enzyme was checked by injecting a single concentration of L-DOPA, and RU response was observed. The data analyses were done with Biacore X100 evaluation software version 2.2, and data were fit to two-state binding and/or heterogeneous analyte binding.
Flow rate was maintained at 45 μL/min. Contact time and dissociation time were kept at 120 s and 200 s. Regeneration was carried out using 10 mM glycine HCl at pH 2.5 for 30 s and at 30 μL/min. The data analysis was performed with Biacore X100 evaluation software version 2.0.1, and data were fit to two states. Each concentration represents sensorgram in the increasing order of curves. Crocin with concentrations (0.156, 0.312, 0.625, 1.25, and 2.5 mM) was injected over the enzyme surface (a). Kojic acid with concentrations (0.0156, 0.0312, 0.0625, 0.125, and 0.25 mM) was injected over the enzyme surface (b). Hydroquinone with concentrations (0.625, 1.25, 2.5, 5.0, and 10 mM) was injected over enzyme surface (c). L-DOPA with concentrations (5, 10, 20, 40 and 80 mM) was injected over the enzyme surface (d).

yam tyrosinase [2] = assay: Diphenolase activity assay (dopachrome at 475 nm, L-DOPA substrate); type: biochemical, Amorphophallus paeoniifolius; conditions: 2 mM L-DOPA, pH 7.0, 30°C
Description: The reaction mixture (3 mL) contained 2 mM of L-DOPA in 50 mM potassium phosphate buffer (pH 7.0); a portion of 100 μL of the enzyme was used for the activity assay. The reaction was carried out at a constant temperature of 30°C using a Shimadzu UV visible spectrophotometer. IC50 values were calculated as per the formula reported earlier.

yam tyrosinase [3] = target: yam tyrosinase; set-up: method as in PMID 29246874; conditions: SPR, two-state model, substrate; cited from earlier work

Row | Kd (yam tyrosinase [1]; PBS pH 7.4) [µM] | k a1 (yam tyrosinase [1]; PBS pH 7.4) [M⁻¹ s⁻¹] | k a2 (yam tyrosinase [1]; PBS pH 7.4) [s⁻¹] | k d1 (yam tyrosinase [1]; PBS pH 7.4) [s⁻¹] | k d2 (yam tyrosinase [1]; PBS pH 7.4) [s⁻¹] | Kd (yam tyrosinase [1]; PBS pH 7.4, listed as crocin) [µM] | IC50 (yam tyrosinase [2]) [µM] | SMILES | Kd (yam tyrosinase [3]) [µM] | k a1 (yam tyrosinase [3]) | k a2 (yam tyrosinase [3]) | k d1 (yam tyrosinase [3]) [s⁻¹] | k d2 (yam tyrosinase [3]) [s⁻¹]
1 | 1660 | 224 ± 11 | 0.003525 ± 9.7e-05 | 0.5772 ± 0.025 | 0.006429 ± 0.00014 | 1700 | 1000 | CC(/C=C/C=C(\C)C(=O)O[C@@H]1O[C@H](CO[C@@H]2O[C@H](CO)[C@@H](O)[C@H](O)[C@H]2O)[C@@H](O)[C@H](O)[C@H]1O)=C\C=C\C=C(C)\C=C\C=C(/C)C(=O)O[C@@H]1O[C@H](CO[C@@H]2O[C@H](CO)[C@@H](O)[C@H](O)[C@H]2O)[C@@H](O)[C@H](O)[C@H]1O [Crocin, crocin] | – | – | – | – | –
2 | – | 2.89 ± 0.13 | 0.001569 ± 3.5e-05 | 0.9166 ± 0.02 | 0.005185 ± 0.00013 | – | 1500 | Oc1ccc(O)cc1 [Hydroquinone, hydroquinone] | – | – | – | – | –
3 | 6.39 | 334 ± 16 | 0.00539 ± 7.8e-05 | 0.03182 ± 0.0013 | – | – | 0.1 | O=c1cc(CO)occ1O [Kojic acid] | – | – | – | – | –
4 | – | – | – | – | – | – | – | N[C@@H](Cc1ccc(O)c(O)c1)C(=O)O [L-DOPA, L-3 dihydroxyphenylalanine] | 1.35 | 9.54 × 10^4 1/ms | 0.001544 ± 1.50 × 10^4 1/s | 0.5089 ± 0.085 | 0.000523 ± 8.4e-05
